Calls of active or inactive are those of the source. No rule for the calls is given here.
System: 697B B-cell line, NF-kB luciferase reporter luminescence
Test: NF-kB reporter inhibition in B cells, dose response, selectivity assay for T-cell antigen receptor NF-kB inhibitors, 697B cells, luminescence (AID 489033)

| Structure (SMILES) | IC50 |
| --- | --- |
| CCCCC(=O)NC(c1ccc(N(CC)CC)cc1)c1ccc2cccnc2c1O (stereo not given) | > 80 µM (inactive) |
| CC[C@]1(O)CC2CN(CCc3c([nH]c4ccccc34)[C@@](C(=O)OC)(c3cc4c(cc3OC)N(C=O)[C@H]3[C@@](O)(C(=O)OC)[C@H](OC(C)=O)[C@]5(CC)C=CCN6CC[C@]43[C@@H]65)C2)C1 (stereo not given in full) | > 80 µM (inactive) |
| CCOC(=O)c1[nH]c(C)c(C(=O)Nc2ccc(C)cc2C)c1C | 42.3 µM (inactive) |
| CCCC(=O)Nc1nc2ccc(S(=O)(=O)N3CCCCC3)cc2s1 | > 80 µM (inactive) |
| Cn1cc(C(=O)N/N=C/c2c(O)ccc3ccccc23)ccc1=O | > 80 µM (inactive) |
| Cc1ccc(O)c(NC(=O)c2cc(-c3ccco3)on2)c1 | > 80 µM (inactive) |
| CC(C)Cn1c(N)c(C(=O)CSc2ccc3c(c2)OCCO3)c(=O)n(C)c1=O | 51.7 µM (inactive) |
| Cc1cc(C)c(CN2CCN(C(=O)Cn3cnc4c(OCc5ccccc5)ncnc43)CC2)c(C)c1 | > 80 µM (inactive) |
| COc1ccc(NC(=O)/C(Cl)=C(/Cl)S(=O)Cc2ccccc2)cn1 (stereo not given) | 0.6 µM |
| Cc1ccc2nc(-c3ccc4c(c3)OCCO4)cn2c1 | 0.47 µM |
| C/C(=N\NC(=O)c1ccc(Cl)c(Cl)c1)c1ccccn1 | 1.03 µM |
| O=C(Nc1ccc(S(=O)(=O)N2CCN(Cc3ccccc3)CC2)cc1)c1cnccn1 | > 80 µM (inactive) |
| COc1cc(-c2c(-c3cc(OC)c(OC)c(OC)c3)noc2C)ccc1F | > 80 µM (inactive) |
| CCc1cc(C(=O)NC2CCCc3c2cnn3-c2cccc(C)c2C)n(C)n1 (stereo not given) | > 80 µM (inactive) |
| CCCCCCCCCCCCCCCC[n+]1ccc(C(N)=O)cc1 | 8.82 µM |
| CCOc1cccc(/C=N/Nc2ccc(S(=O)(=O)N(CC)CC)cn2)c1O | 11.3 µM |
| COCCCNC(=O)C(=O)Nc1ccc2c(c1)N(S(=O)(=O)c1cccs1)CCC2 | > 80 µM (inactive) |
| CCOc1ccc2c(c1)OC(c1ccc(OC)cc1)(C(F)(F)F)NC2=O (stereo not given) | > 80 µM (inactive) |
| CCC(C)(C)c1ccc(OCCCC[n+]2cccc(C)c2C)c(C(C)(C)CC)c1 | 16.2 µM |
| COC(=O)c1nn(-c2ccc3c(c2)CCN3C(C)=O)cc1O | 5.08 µM |
| COc1ccccc1NC(=O)c1cnc(Nc2ccccc2OC)c2ccccc12 | > 80 µM (inactive) |
| Cc1cccc(OCCNC(=O)c2ccc(Cl)c(S(=O)(=O)NCc3cccnc3)c2)c1 | > 80 µM (inactive) |
| CCN(CC)c1ccc2nc3ccc(N)cc3[n+](-c3ccccc3)c2c1 | 57.5 µM (inactive) |
| CCOc1ccc(S(=O)(=O)NCc2ccccn2)cc1NC(=O)c1ccccc1 | > 80 µM (inactive) |
| O=C(COc1ccc2c(-c3ccccc3)cc(=O)oc2c1)Nc1cccnc1 | > 80 µM (inactive) |

| Structure (SMILES) | IC50 |
| --- | --- |
| CCOC(=O)c1ccccc1NC(=O)Cn1c(-c2nonc2N)nc2ccccc21 | > 80 µM (inactive) |
| CCOC(=O)CSC1=C(C#N)C(c2ccc(C)s2)CC(=O)N1 (stereo not given) | > 80 µM (inactive) |
| CC(Nc1ncnc2ccccc12)c1ccccc1 (stereo not given) | > 80 µM (inactive) |
| c1ccc2c(c1)CCN(c1ncnc3c1[nH]c1ccccc13)C2 | 16.8 µM |
| CC(C)c1ccc(/C=N/Nc2ccc(C(=O)O)cc2)cc1 | 10.7 µM |
| CCOc1ccccc1C(=O)N1CCN(c2cccc(Cl)c2)CC1 | > 80 µM (inactive) |
| COc1cc2nc(NC(=O)c3ccco3)sc(=O)c2cc1OC | 0.67 µM |
| COc1ccc(Nc2ncnc3ccc(Br)cc23)c(OC)c1 | 0.37 µM |
| COC(=O)Nc1ccc(S(=O)(=O)N2c3ccccc3CCC2C)cc1 (stereo not given) | > 80 µM (inactive) |
| CSc1ccc(COC(=O)c2cc([N+](=O)[O-])ccc2N2CCOCC2)cc1 | 30 µM (inactive) |
| Cc1c(C)c2cccnc2c2ncccc12 | 6.81 µM |
| COc1cc(Nc2ccc(C)cc2)c([N+](=O)[O-])nc1[N+](=O)[O-] | > 80 µM (inactive) |
| CCOc1cc(C(=O)N/N=C/C(Br)=C/c2ccccc2)cc(OCC)c1OCC | 35.6 µM (inactive) |
| COc1ccc2c(c1)C(=O)N1[C@H]3c4cc(Br)ccc4OC[C@@H]3[C@H](c3ccccc3)[C@]1(C)C(=O)N2 | > 80 µM (inactive) |
| COc1cccc(-c2cc(=O)c3cc(NC(=O)c4ccccc4)ccc3[nH]2)c1 | > 80 µM (inactive) |
| Cc1cc(-c2ccc(C)c(S(=O)(=O)N3CCN(c4ccc([N+](=O)[O-])cc4)CC3)c2)on1 | > 80 µM (inactive) |
| Cc1csc2ncnc(NC3CCN(Cc4ccccc4)CC3)c12 | 8.31 µM |
| O=C(Nc1cccc(C(F)(F)F)c1)c1sc(Cl)nc1C(F)(F)F | 1.37 µM |
| CCCCCCCCCn1c2c(c(=N)c3c1CCC3)CCC2 | 10.7 µM |
| O=S1(=O)Nc2c(ccc3cccnc23)-c2ccccc21 | 0.54 µM |
| Cc1ccc(NC(=O)c2cc3ccccc3oc2=O)cc1S(=O)(=O)N(C)C | < 0.16 µM |
| CC(C)Oc1ccccc1C1CC(=O)Nc2cc3c(cc21)OCCO3 (stereo not given) | 59.5 µM (inactive) |
| Cc1nc2c(=O)n(C)c(=O)nc-2n(C)n1 | 3.36 µM |
| CCc1ccc2nc(SCC(=O)Nc3ccccc3N3CCOCC3)c(C#N)cc2c1 | > 80 µM (inactive) |
| COCCn1c(C)cc(C2=NNC(=Nc3ccccc3F)SC2)c1C | 20.7 µM (inactive) |

| Structure (SMILES) | IC50 |
| --- | --- |
| Cc1ccnc2c1ccc1c(C)ccnc12 | 10.1 µM |
| COc1ccccc1-c1nnc2n1N=C(c1ccc(O)c(O)c1)CS2 | 77.9 µM (inactive) |
| Nc1ncn([C@@H]2O[C@H](CO)[C@@H](O)[C@H]2O)c(=O)n1 | 11.9 µM |
| COC(=O)C1CN(C#N)N(c2ccc(Cl)cc2)C12c1ccccc1-c1ccccc12 (stereo not given) | 3.58 µM |
| CCC1CCCCN1C(=O)c1cc(COc2ccc3ncccc3c2)on1 (stereo not given) | > 80 µM (inactive) |
| COc1cccc2sc(Nc3nnc(-c4ccccc4Cl)o3)nc12 | 3.64 µM |
| Cc1cc(C)cc(NC(=O)c2ccc([N+](=O)[O-])o2)c1 | 21.3 µM (inactive) |
| NS(=O)(=O)c1ccc(Sc2nc3ccccc3s2)c([N+](=O)[O-])c1 | 1.34 µM |
| Cc1ccc(C(=O)Nc2ncc(Cc3ccc(SC(F)F)cc3)s2)cc1 | > 80 µM (inactive) |
| CC(C)CCOc1cccc(OCC(=O)Nc2ccncc2)c1 | > 80 µM (inactive) |
| COc1cc2nc(CN3CC=C(c4ccccc4)CC3)[nH]c(=O)c2cc1OC | 13.8 µM |
| Cc1ccc(-c2cc(-c3ccc(C)cc3)[n+](-c3ccccc3)c(-c3ccc(C)cc3)c2)cc1 | 0.7 µM |
| Cc1ccc(S(=O)(=O)/N=C2\C=C(Nc3ccc(O)cc3)C(=O)c3ccccc32)cc1 | 2.04 µM |
| Cc1cc(C)nc(SCC(=O)Nc2ccnc3ccccc23)n1 | > 80 µM (inactive) |
| Cn1nc(-c2ccccn2)nc2c(=O)n(C)c(=O)nc1-2 | 4.12 µM |
| Cc1ccc2nc(SCC(=O)Nc3cc(C(F)(F)F)ccc3N3CCOCC3)[nH]c2c1 | > 80 µM (inactive) |
| COc1cccc(N/C(N)=N/c2nc(CSc3ccccn3)cc(=O)[nH]2)c1 | > 80 µM (inactive) |
| CCN1/C(=C/c2ccc3cc(C)ccc3[n+]2CC)Sc2ccc3sccc3c21 | 9.39 µM |
| COc1ccc(C(=O)/C(C#N)=N/Nc2ccc([N+](=O)[O-])cc2)cc1 | 18.6 µM |
| COc1ccc(CC(=O)Nc2cccc(-c3nnc(-c4cccc(C)c4)o3)c2)cc1OC | 8.4 µM |
| Cc1ccc(-c2cc(C(F)F)n3ncc(C(=O)N4CCc5ccccc54)c3n2)cc1 | > 80 µM (inactive) |
| CCc1ccc(/C=N/NC(=O)c2cc(C3CC3)nc3ccccc23)s1 | 23.3 µM (inactive) |
| CCCCCCCCn1c2c(c(=N)c3c1CCC3)CCCC2 | 27.5 µM (inactive) |
| CC(=O)Nc1ccc(S(=O)(=O)N2c3ccc(F)cc3CCC2C)cc1 (stereo not given) | > 80 µM (inactive) |
| CCOC(=O)c1[nH]c(C)c(C(=O)c2cc(F)ccc2F)c1C | > 80 µM (inactive) |

| Structure (SMILES) | IC50 |
| --- | --- |
| COC(=O)C[C@]1(C(=O)OC)CN(C#N)N(c2ccc(Cl)cc2)C12c1ccccc1-c1ccccc12 | 4.43 µM |
| COc1ccc(C(=O)Nc2ccc3[nH]c(-c4cccc(OC)c4)cc(=O)c3c2)cc1 | > 80 µM (inactive) |
| CCOC(=O)C(C)Oc1cccc2c(=O)n(CC(=O)NCc3ccco3)ccc12 (stereo not given) | > 80 µM (inactive) |
| Cc1csc2sc(-c3ccnc(SCC(=O)NCc4ccccc4)n3)c(C)c12 | > 80 µM (inactive) |
| Oc1ccc(Nc2nc3ccccc3nc2Nc2ccc(O)cc2)cc1 | 3.73 µM |
| COc1cccc(/C=N/Nc2ncnc3c2ncn3Cc2ccccc2)c1O | 23.4 µM (inactive) |
| CCCCCCCCn1c2c(c(=N)c3ccccc31)CCC2 | 2.31 µM |
| C=C1C(=O)C=C2CN(C(=O)c3ccccc3)[C@@](Cc3ccc(F)cc3)(C(=O)OC)[C@@H]12 | 1.01 µM |
| C/C=C(\C)C(=O)N[C@@H](c1ccccc1)[C@@H](O)C(=O)O[C@H]1C[C@@]2(O)[C@@H](OC(=O)c3ccccc3)C3[C@](C)(C(=O)[C@H](OC(C)=O)C(=C1C)C2(C)C)[C@H](O)C[C@H]1OC[C@@]31OC(C)=O (stereo not given in full) | > 80 µM (inactive) |
| Cc1ccc2c(c1)sc(-c1ccc(N(C)C)cc1)[n+]2C | 33.6 µM (inactive) |
| COc1ccccc1N1CCN(C(=O)c2ccc(-c3ccc(Cl)cc3)o2)CC1 | 66.5 µM (inactive) |
| O=C(Nc1ccc(Cl)c(S(=O)(=O)N2CCOCC2)c1)c1ccc(OCC2CCCO2)cc1 (stereo not given) | 4.54 µM |
| O=C(Nc1cccc2ccccc12)OC1C=CS(=O)(=O)C1 (stereo not given) | 10.7 µM |
| Cc1ccc(C)c(NS(=O)(=O)c2ccc(-c3cnc(C4CC4)o3)cc2)c1 | > 80 µM (inactive) |
| Cc1ccc(NS(=O)(=O)c2ccc(-c3cnc(C4CC4)o3)cc2)c(C)c1 | > 80 µM (inactive) |
| Oc1ccc2ccccc2c1N=Nc1ccccn1 | 3.22 µM |
| COc1ccc(NC(=O)/C(Cl)=C(/Cl)S(=O)Cc2ccc(C)cc2)cn1 (stereo not given) | < 0.16 µM |
| Clc1cccc(Cl)c1/C=N/Nc1c(Cl)cncc1Cl | > 80 µM (inactive) |
| COc1ccc(C(=O)N(C)Cc2cnn(Cc3ccccc3)c2)cc1S(=O)(=O)N1CCOCC1 | > 80 µM (inactive) |
| CCn1c2ccccc2c2cc(Nc3cc(C)nc4ncnn34)ccc21 | 47 µM (inactive) |
| Cc1ccc(C(=O)Nc2cc3ccccc3oc2=O)cc1 | 2.11 µM |
| CCOc1ccccc1NS(=O)(=O)c1ccc(-c2cnc(C3CC3)o2)cc1 | > 80 µM (inactive) |
| CCOc1ccc2c(c1)sc(N)[n+]2Cc1cc(C)cc2cccnc12 | 33.3 µM (inactive) |
| Cc1cc(NC(=O)CSc2nc3ccccc3c(=O)n2C2CCCC2)no1 | > 80 µM (inactive) |
| CCOC(=O)c1[nH]c2c(c1C)C(=O)CC(c1ccco1)C2 (stereo not given) | > 80 µM (inactive) |

From PubChem BioAssay AID489033 (Sanford-Burnham Center for Chemical Genomics, 2010)
